The subject of data set [1] is human squamous cell carcinomas HSC-4. Briefly: Cytotoxicity CC50, MTT assay, HSC-4. The conditions noted are these: Homo sapiens, HSC-4, 24 h, read-out: CC50(μM) HSC-4. The method, boiled down:
(§1)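 Tumour cells and normal oral cells (HGF, HPC, HPLF; 3-7 population doublings) exposed to graded compound concentrations for 24 h. Viability by MTT absorbance at 540 nm, or by trypan blue exclusion with haemocytometer counting for HL-60; CC50 derived from dose-response curves.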

For the next data set, the system named is HCC 2998. The experiment in a line: Human tumour cell line panel, colon cancer HCC 2998. The class given is cell-based. Particulars: Homo sapiens, HCC 2998, 48 h; read-out: Colon cancer cells, IC50(μM) HCC 2998. Here is the method: (§2) In addition, both 5-fluorouracil and melphalan were evaluated towards 57 cell lines. […] MG MID is the average of the potencies of the compound to approximately 50 neoplastic cell lines.

The subject of the next data set is HCT 116. Briefly: Human tumour cell line panel, colon cancer HCT 116. The class given is cell-based. Particulars: Homo sapiens, HCT-116, 48 h; read-out: Colon cancer cells, IC50(μM) HCT 116. Here is the method: as §2
A further data set concerns K 562. Briefly: Human tumour cell line panel, leukemic K 562. The conditions noted are these: Homo sapiens, K562, 48 h; read-out: Leukemic cells, IC50(μM) K 562. The class given is cell-based. Here is the method:
as §2

The next data set has as its system HL 60. The experiment in a line: Human tumour cell line panel, leukemic HL 60. The class given is cell-based. The conditions noted are these: Homo sapiens, HL-60, 48 h; read-out: Leukemic cells, IC50(μM) HL 60. The method, then: as §2
Another data set has as its system RPMI 8226. Briefly: Human tumour cell line panel, leukemic RPMI 8226. It is filed as cell-based. The conditions noted are these: Homo sapiens, RPMI-8226, 48 h; read-out: Leukemic cells, IC50(μM) RPMI 8226. Here is the method: as §2
Data set [2] can be described thus: in vitro. Particulars: human.
A further data set concerns SW 620. The experiment in a line: Human tumour cell line panel, colon cancer SW 620. The class given is cell-based. The conditions noted are these: Homo sapiens, SW-620, 48 h; read-out: Colon cancer cells, IC50(μM) SW 620. The method, then:
as §2

The subject of another data set is KM 12. The experiment in a line: Human tumour cell line panel, colon cancer KM 12. It is filed as cell-based. Particulars: Homo sapiens, KM12, 48 h; read-out: Colon cancer cells, IC50(μM) KM 12. Here is the method: as §2
Data set [3] concerns HGF, HPC and HPLF cells versus HSC-2, HSC-4 and HL-60 neoplasms. The experiment in a line: Selectivity index, normal versus malignant cells. It is filed as cell-based, human. The conditions noted are these: average CC50 of HGF, HPLF divided by average CC50 of HSC-2, HSC-4, HL-60. The method, then:
In addition, the compounds were evaluated against human squamous cell carcinomas (HSC-2 and HSC-4) and human promyelocytic leukemia neoplasms (HL-60) and compared with normal cells, i.e. human gingival fibroblasts (HGF), human pulp cells (HPC) and human periodontal ligament fibroblasts (HPLF).
MTT stands for 3-(4,5-dimethylthiazol-2-yl)-2,5-diphenyltetrazolium bromide). The cells were incubated with varying concentrations of the compounds along with untreated cells for 24 h and the absorbance at 540 nm measured. In the case of the HL-60 assay, the trypan blue exclusion method was followed and cell viability was determined using a haemocytometer. The CC50 values were obtained from dose-response curves (Sakagami, H.; Satoh, K.; Ohata, H.; Takahashi, H.; Yoshida, H.; Iida, M.; Kuribayashi, N.; Sakagami, T.; Momose, K.; Takeda, M. Anticancer Res. 1996, 16, 2635-2644). The general methods used in culturing the cells employed in these cytotoxicity experiments have been described previously (Kawase, M.; Sakagami, H.; Motohashi, N.; Hauer, H.; Chatterjee, S. S.; Spengler, G.; Vigyikanne, A. V.; Molnár, A.; Molnár, J. In Vivo 2005, 19, 705-712; and Takeuchi, R.; Hoshijima, H.; Onuki, N.; Nagasaka, H.; Chowdhury, S. A.; Kawase, M.; Sakagami, H. Anticancer Res. 2005, 25, 4037-4042). In brief, the malignant cells were obtained from Professor Nagumo, Showa University, Japan. The HGF, HPC and HPLF cells were prepared from human periodontal tissue after obtaining informed consent according to the guidelines of Meikai University Ethics Committee, Japan (No. 0206). Since normal cells have a short lifespan, cells at the 3-7 population doubling time were used. With the exception of the HL-60 neoplasm, the cells were cultured in DMEM containing heat-inactivated FBS (10%) at 37° C. in a humidified carbon dioxide atmosphere and subcultured by trypsinization. The HL-60 cells were cultured in a similar fashion except that RPMI 1640 media was employed.

The subject of another data set is human tumour cell lines. Briefly: Panel of human tumour cell lines, all cell lines (mean graph midpoint). It is filed as cell-based. The procedure, abridged: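 Compounds tested against about 49 human cancer cell lines covering leukemia, melanoma, lung, colon, CNS, ovarian, renal, prostate and breast tumours. MG MID is the average potency across the approximately 50 lines.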

Data set [4] relates to human squamous cell carcinomas HSC-2. The experiment in a line: Cytotoxicity CC50, MTT assay, HSC-2. The conditions noted are these: Homo sapiens, HSC-2, 24 h, read-out: CC50(μM) HSC-2. The procedure, abridged: as §1
The test system of the next data set is SR. The experiment in a line: Human tumour cell line panel, leukemic SR. It is filed as cell-based. Particulars: Homo sapiens, SR, 48 h; read-out: Leukemic cells, IC50(μM) SR. Here is the method:
as §2

Data set [5] concerns murine L-5178 lymphoma cells transfected with the human MDR1 gene. The experiment in a line: MDR reversal, rhodamine 123 fluorescence activity ratio. The conditions noted are these: FAR >1 indicates MDR reversal; for FAR value 4 μg/ml: compound 4 μg/ml; for FAR value 40 μg/ml: compound 40 μg/ml.
Data set [6] relates to human promyelocytic leukemia HL-60. Briefly: Cytotoxicity CC50, trypan blue exclusion, HL-60. The conditions noted are these: Homo sapiens, HL-60, 24 h, read-out: CC50(μM) HL-60. The procedure, abridged: as §1
The next data set has as its system HCT 15. Briefly: Human tumour cell line panel, colon cancer HCT 15. The class given is cell-based. The conditions noted are these: Homo sapiens, HCT-15, 48 h; read-out: Colon cancer cells, IC50(μM) HCT 15. The method, then: as §2
A short description of data set [7]: in vitro. The conditions noted are these: human. This is another data set of the same source.
A short description of data set [8]: in vitro. Particulars: human. The source holds these as a separate data set.
The subject of a further data set is COLO 205. Briefly: Human tumour cell line panel, colon cancer COLO 205. The conditions noted are these: Homo sapiens, COLO 205, 48 h; read-out: Colon cancer cells, IC50(μM) COLO 205. It is filed as cell-based. Here is the method:
as §2

The test system of data set [9] is synthetic DNA, poly(d(AT)). The conditions noted are these: cited from earlier work.
The subject of data set [10] is murine lymphocytic leukemia P388/MRI cell line. The conditions noted are these: cited from earlier work.
For another data set, the system named is mice. The conditions noted are these: five consecutive daily doses of 240 mg/kg; cited from earlier work.

Each structure is given as a SMILES string. Some results are limits rather than exact numbers.

As for `Cl.O=C1C(=Cc2ccc(Cl)cc2)CN(C(=O)c2ccc(OCCN3CCCCC3)cc2)CC1=Cc1ccc(Cl)cc1` [Compound 5b, 3,5-bis(4-Chlorophenylmethylene)-1-[4-{2-(1-piperidinyl)ethoxy}phenylcarbonyl]-4-piperidone hydrochloride], the results for the CC50 in data set [1], in data set [4] and in data set [6] were 48 µM, 110 µM and 63 µM, respectively. The IC50 was found to be 1.58 µM with HCC 2998; 47.9 µM in the data set with HCT 116; 4.37 µM in the data set on K 562; 20.4 µM with HL 60; 0.759 µM in the data set on RPMI 8226; 3.55 µM with SW 620. Moreover, the IC50 in the data set with KM 12 was 19.1 µM; in the data set on human tumour cell lines (mean graph midpoint, average of 49 (38-59) human tumour cell lines, 48 h incubation, read-out: All cell lines IC50) it was greater than 11.5 µM; with SR it was 2.29 µM; with HCT 15 it was 49 µM; in the data set on COLO 205, 15.8 µM. The values for the CC50 at 24 h in the data set “in vitro [2]”, in the data set “in vitro [7]” and in “in vitro [8]” were 340 µM, greater than 400 µM and greater than 400 µM, respectively. Also, in [3], the “SI (selectivity index)” value is greater than 5.2. In addition, the “S.I. (selectivity index)” value in the data set with human tumour cell lines (ratio of the IC50 figures for the least and most sensitive cell lines) is on record as greater than 66.1. The “FAR value 4 μg/ml” value in data set [5] turned out to be 157. Besides, the “FAR value 40 μg/ml” value in data set [5] is given as 133.

With `CCN(CC)CCOc1ccc(C(=O)N2CC(=Cc3ccc([N+](=O)[O-])cc3)C(=O)C(=Cc3ccc([N+](=O)[O-])cc3)C2)cc1.Cl` [Compound 4c, 1-[4-(2-Diethylaminoethoxy)phenylcarbonyl]-3,5-bis(4-nitrophenylmethylene)-4-piperidone hydrochloride], the results for the CC50 in data set [1], in data set [4] and in data set [6] were 1.1 µM, 0.98 µM and 0.26 µM, respectively. In addition, the “SI (selectivity index)” value in data set [3] is on record as 6.6. In addition, the “FAR value 4 μg/ml” value in [5] came out at 77.5. Further, the “FAR value 40 μg/ml” value in data set [5] stood at 14.1.

For `O=C1C(=Cc2ccccc2)CN(C(=O)c2ccccc2)CC1=Cc1ccccc1` [Compound 2a, 1-Benzoyl-3,5-bis(phenylmethylene)-4-piperidone], the melting point lay within 165 to 166 °C.

In turn, `CCN(CC)CCOc1ccc(C(=O)O)cc1.Cl` displayed a melting point of 170 to 172 °C.

Turning to `O=C1C(=Cc2ccccc2)CNCC1=Cc1ccccc1` [Compound B1], in data set [9], the “Binding to poly(d(AT))” value is recorded as “does bind”. Moreover, in data set [10], the Cytotoxic activity entry is listed as “possesses cytotoxic activity”. Further, the Fatalities in mice result in the data set on mice is reported as “did not induce fatalities”.

For `CCN(CC)CCOc1ccc(C(=O)N2CC(=Cc3ccc(C)cc3)C(=O)C(=Cc3ccc(C)cc3)C2)cc1.Cl` [Compound 4d, 1-[4-(2-Diethylaminoethoxy)phenylcarbonyl]-3,5-bis(4-methylphenylmethylene)-4-piperidone hydrochloride], the CC50 in data set [1] turned out to be 2.3 µM; in data set [4], 2.2 µM; in [6], 0.79 µM. Moreover, the “SI (selectivity index)” value in data set [3] was determined as 3.3. Further, the “FAR value 4 μg/ml” value in data set [5] came to 106. The “FAR value 40 μg/ml” value in [5] is recorded as 66.6.

Take `CCN(CC)CCOc1ccc(C(=O)N2CC(=Cc3ccc(Cl)cc3)C(=O)C(=Cc3ccc(Cl)cc3)C2)cc1.Cl` [Compound 4b, 3,5-bis(4-Chlorophenylmethylene)-1-[4-(2-diethylaminoethoxy)phenylcarbonyl]-4-piperidone hydrochloride]: the CC50 was found to be 34 µM in data set [1], 160 µM in [4] and 46 µM in [6]. Also, the CC50 at 24 h is greater than 400 µM in the data set “in vitro [2]”, greater than 400 µM in “in vitro [7]” and 230 µM in “in vitro [8]”. Also, the “SI (selectivity index)” value in data set [3] is given as greater than 4.3. Also, the “FAR value 4 μg/ml” value in [5] was 118. Further, in data set [5], the “FAR value 40 μg/ml” value is 99.7.

Take `Cc1ccc(C=C2CNCC(=Cc3ccc(C)cc3)C2=O)cc1` [Compound 1d, 3,5-bis(4-Methylphenylmethylene)-4-piperidone]: the values for the CC50 in [1], in data set [4] and in [6] were 9.3 µM, 3.9 µM and 4.5 µM, respectively. The “SI (selectivity index)” value in data set [3] was found to be 29. In addition, the “FAR value 4 μg/ml” value in data set [5] stood at 3.26. Besides, the “FAR value 40 μg/ml” value in data set [5] was found to be 4.03.

The compound `COc1ccc(C(=O)N2CC(=Cc3ccccc3)C(=O)C(=Cc3ccccc3)C2)cc1` [Compound 2b, 1-(4-Methoxybenzoyl)-3,5-bis(phenylmethylene)-4-piperidone] registered a melting point of 177 to 178 °C.

As usually defined, the IC50 is the point on the concentration scale where inhibition reaches its midpoint. As a reminder, the melting point is the temperature of the solid-liquid transition.

The record behind these values is patent US7582655B2, “Antineoplastic compounds” (University of Saskatchewan, priority 2005, dated 2009).
